In patent publication US20120172390A1, “METHOD OF TREATING SLEEP DISORDERS USING THE COMBINATION OF EPLIVANSERIN AND ZOLPIDEM” (priority 2009, published 2012):

How the values were obtained:
[1] = Compensatory Tracking Task (CTT), next-day morning; assay type: in vivo, human
[2] = Delayed Recall of Word Lists, next-day morning; assay type: in vivo, human
[3] = set-up: species or system human; settings: in vivo
[4] = Critical Flicker Fusion (CFF) test, next-day morning; assay type: in vivo, human
[5] = Adverse events and tolerability in healthy individuals
Experimental: Single center study employing a two-part, double-blind, randomized, placebo- and active-controlled, 4-way crossover design (FIG. 1). Eligibility criteria included certification of good health, 18-50 years of age, and written informed consent.
Part A (the first part of the study): participants were first administered either one evening dose of flurazepam 30 mg or matching placebo, and after a 21-day washout period, participants were administered the other treatment.
Part B: participants received either an evening dose of eplivanserin 5 mg or matching placebo for 21 days, followed by co-administration with a single dose of zolpidem-IR 10 mg.
After this phase of the study, participants were then administered the reverse treatment sequence.
Adverse events were recorded (Medical Dictionary for Regulatory Activities v9.1). Other measures included vital signs, standard clinical laboratory parameters (biochemistry, hematology, and urinalysis), and electrocardiograms.

[6] = Steady-state levels after repeated administration in the study; assay type: in vivo, human; settings: after 20 days of repeated administration of eplivanserin 5 mg; also for its active metabolite
Experimental: As a consequence, cognitive/psychomotor performance was assessed under steady state conditions.

[7] = Bond-Lader Visual Analog Scale (VAS), next-day morning; assay type: in vivo, human
[8] = Immediate recall of Word list, next-day morning; assay type: in vivo, human
[9] = in vivo; cited from earlier work
[10] = Global analysis of the 7 primary psychomotor/cognitive endpoints (multivariate mixed effect model); assay type: in vivo, human
[11] = system: GABA receptors; settings: unlike benzodiazepines; cited from earlier work
[12] = eplivanserin 5 mg evening dose for 21 days vs placebo, P>0.1
[13] = flurazepam 30 mg single evening dose vs placebo, P=0.0001

Question: Which “Compensatory tracking task overall average response time, mean difference estimate” value [1, 12] does the source give for `CN(C)CCO/N=C(/C=C/c1ccc(O)cc1)c1ccccc1F` [eplivanserin, (1Z, 2 E)-1-(2-fluorophenyl)-3-(4-hydroxyphenyl)-prop-2-en-1-one-O-(2-dimethylaminoethyl)oxime] here?
Answer: 13.03 ms

Question: What about the “Compensatory tracking task overall average tracking errors, mean difference estimate” value [1, 12] of the same compound?
Answer: −0.22 pixels

Question: What about the “Delayed word recall number of correct responses, mean difference estimate” value [2, 12] of the same compound?
Answer: −0.33

Question: And the “CRT total reaction time, mean difference estimate” value [3]?
Answer: -10.40 ms

Question: And the “CFF point of subjective equality, mean difference estimate” value ([4]; eplivanserin 5 mg evening dose for 21 days vs placebo, P=0.0002)?
Answer: −1.01 Hz

Question: And the “Headache, participants reporting” value ([5]; Part B, eplivanserin 5 mg 21 days, 6/24, placebo also 25%)?
Answer: 25%

Question: What about the “Dizziness, somnolence and asthenia, participants reporting” value ([5]; Part B, eplivanserin 5 mg 21 days, 7/24, placebo 4.2% (1/24)) of the same compound?
Answer: 29.2%

Question: What about the Tolerability ([5]; eplivanserin 5 mg, alone and in combination with zolpidem) of the same compound?
Answer: well tolerated

Question: And the Steady-state levels [6]?
Answer: Steady-state levels were reached

Question: And the “Bond and Lader visual analogue scale alertness, mean difference estimate” value [7, 12]?
Answer: 9.38

Question: And the “Immediate word recall number of correct responses, mean difference estimate” value [8, 12]?
Answer: −1.04

Question: And the Absorption [9]?
Answer: > 70%

Question: What about the “Overall treatment effect on the 7 primary endpoints (global analysis)” value ([10]; eplivanserin 5 mg 21 days alone compared with placebo, P=0.0603) of the same compound?
Answer: not associated with an overall treatment effect

Question: And the “Binding to GABA receptors” value [11]?
Answer: does not bind

Question: Which “Compensatory tracking task overall average response time, mean difference estimate” value ([1]; flurazepam 30 mg single evening dose vs placebo, P=0.0029) does the source give for `CCN(CC)CCN1C(=O)CN=C(c2ccccc2F)c2cc(Cl)ccc21` [flurazepam, reference compound] here?
Answer: 49.98 ms

Question: What about the “Compensatory tracking task overall average tracking errors, mean difference estimate” value ([1]; flurazepam 30 mg single evening dose vs placebo, P=0.0221) of the same compound?
Answer: 1.64 pixels

Question: And the “Delayed word recall number of correct responses, mean difference estimate” value [2, 13]?
Answer: −4.38

Question: What about the “CRT total reaction time, mean difference estimate” value [3] of the same compound?
Answer: 47.46 ms

Question: What about the “CFF point of subjective equality, mean difference estimate” value ([4]; flurazepam 30 mg single evening dose vs placebo, P=0.2005) of the same compound?
Answer: −0.52 Hz

Question: What about the Adverse events reported ([5]; Part A, flurazepam 30 mg single dose, healthy individuals) of the same compound?
Answer: 2/24

Question: And the “Bond and Lader visual analogue scale alertness, mean difference estimate” value ([7]; flurazepam 30 mg single evening dose vs placebo, P=0.0031)?
Answer: 62.38

Question: And the “Immediate word recall number of correct responses, mean difference estimate” value [8, 13]?
Answer: −3.08

Question: And the “Overall treatment effect on the 7 primary endpoints (global analysis)” value ([10]; flurazepam 30 mg single dose compared with placebo, P=0.0001)?
Answer: associated with an overall treatment effect

Question: Which Adverse events reported ([5]; Part B, co-administration phase with single dose zolpidem-IR 10 mg) does the source give for `Cc1ccc(-c2nc3ccc(C)cn3c2CC(=O)N(C)C)cc1` [zolpidem] here?
Answer: 1/24
